Measured values as given in article PMC10076671, “Spider venom-derived peptide JZTX-14 prevents migration and invasion of breast cancer cells via inhibition of sodium channels” (Frontiers in Pharmacology, 2023).
“Also recorded” adds a separate entry of the source. Where a SMILES comes first, the peptide text is derived from it. Bridges are numbered along the chain shown (N, C = ends).

What was measured:
[1] = biological target: T1, MDA-MB-231 sodium channels (Homo sapiens, UniProt Q14524); assay: Whole-cell patch clamp, sodium currents in MDA-MB-231 cells; assay type: cell-based
T1 construct: host or cells: MDA-MB-231
Procedure: Sodium currents in experimental cells were recorded at room temperature (22°C–25°C) using an EPC-10 patch-clamp amplifier (HEKA, Germany) in a whole-cell patch-clamp configuration. Recording pipettes were made from borosilicate glass capillaries (VWR, United States) using a PC-10 puller (Narishige, Japan). The inner solution (mM): KCl 130, NaCl 15, CaCl2 0.37, MgCl2 1 EGTA 1, HEPES 10, pH 7.2, resistance was measured as 1.8 MO. The outer solution was composed of (mM): NaCl 140, KCl 3, MgCl2 1, CaCl2 1, HEPES 10, pH 7.2. To minimize voltage errors, the series resistance compensation was set to 80%. The P/4 protocol was used to subtract the linear capacitance and leakage current. Experimental data were acquired and analyzed using the pulse fit 8.0 program (HEKA, Germany). The needed concentrations of toxin dissolved in external solution were applied to the cell surface by microinjector.
The biological activity of synthetic JZTX-14 in MDA-MB-231 cells was recorded using the whole-cell patch-clamp method. MDA-MB-231 sodium channels are sensitive to JZTX-14. […] The inward sodium current was induced by a 50 ms depolarisation potential of −30 mV at a holding potential of −100 mV (Figure 3A). The inhibition by JZTX-14 was concentration-dependent (Figure 3B). […] Next, we determined the effects of JZTX-14 on the current-voltage (I–V) curves of sodium channels resulting from a series of currents induced by a set of depolarising potentials ranging from −100 to +60 mV when cells were held at −100 mV (Figure 3C). […] We also investigated the effect of JZTX-14 on the steady-state inactivation of sodium channels in MDA-MB-231 cells. […] shifted the inactivation curves for sodium channels by approximately 10 mV (Figure 3D).

[2] = test system: MDA-MB-231 cells; assay: CCK-8 cell proliferation assay; assay type: cell-based, human
[3] = test system: MDA-MB-231 cells; assay: Hoechst 33342/PI double staining assay; assay type: cell-based, human; conditions: 0, 6, 12.5 μM; 48 h
Procedure: The cells were seeded in a 6-well plate, and after their adherence to the plate, the medium was changed with a complete medium containing different concentrations of inhibitors. After 48 h of treatment, the cells were washed three times with 4°C cold PBS, and incubated with 5 μl/ml Hoechst 33,342 for 15 min. The cells were washed again three times using PBS and incubated with 5 μl/ml PI for 15 min.

[4] = test system: MDA-MB-231 cells; assay: Scratch wound assay (cell migration); assay type: cell-based, human; conditions: 12.5 μM, DMEM/F12 containing 0.2% BSA
Procedure: The MDA-MB-231 cells were seeded into a six-well plate at an appropriate density to form a single layer of cells. After 12 h, a sterile 200 μl pipette tip was used to produce a linear scraping wound, which was cultured with DMEM/F12 containing 0.2% BSA and different concentrations of inhibitors. The cells were imaged at 0 h, 24 h and 48 h, after scratch induction. ImageJ software was used to analyze the images and quantify cell migration.

[5] = test system: MDA-MB-231 cells; assay: Transwell assay (cell migration/invasion); assay type: cell-based, human; conditions: 24 h incubation, crystal violet staining
Procedure: Cell migration assay was performed using 24-well transwell plate (Corning, United States). 5×10^4 cells/well were seeded in the upper chamber in DMEM/F12 medium containing 0.1% BSA, the lower chamber contained DMEM/F12% and […]. After 24 h incubation, the cells on the filter membrane were washed three times with PBS, then fixed with 4% paraformaldehyde for 30 min and stained with 0.1% crystal violet for 20 min. The cells on the filter were observed by microscopy and the number of cells was determined using the quantification software ImageJ.

[6] = test system: MDA-MB-231 cells; assay: Quantitative real-time PCR validation of migration and invasion-related genes; assay type: cell-based, human; conditions: JZTX-14-treated MDA-MB-231 cells
[7] = test system: MDA-MB-231 cells; assay: Western blot analysis of EMT markers; assay type: cell-based, human; conditions: compared to controls
Procedure: Cells treated with different concentrations of JZTX-14 were lysed with RIPA lysis solution and samples were collected. Protein concentrations were determined by BCA assay kit (Biosharp, China) and denatured by adding SDS loading buffer (Bio-Bad, United States) followed by boiling. Equal amounts of total protein lysates were subjected to SDS-PAGE and transferred to PVDF membrane (Merck Millipore, United States), 5% BSA was used for blocking (1 h). Primary antibody (Nav1.5, E-cadherin, GAPDH and Vimentin antibody for Proteintech; N-cadherin for Immunoway) was incubated overnight at 4°C, secondary antibody (Abbkine, China) was incubated for 1 h at room temperature and the membrane was visualized by chemiluminescence.

[8] = test system: Nav1.5; conditions: HEK293 cells heterologously expressing Nav1.5; ref Zhang et al., 2018; cited from earlier work

SMILES: CC[C@H](C)[C@H](NC(=O)[C@@H]1CSSC[C@@H]2NC(=O)[C@@H]3CCCN3C(=O)[C@@H]3CCCN3C(=O)[C@H](CCC(N)=O)NC(=O)CNC(=O)[C@@H]3CCCN3C(=O)[C@H](Cc3c[nH]cn3)NC(=O)[C@@H]3CSSC[C@H](NC(=O)[C@H](C)NC(=O)[C@H](CC(C)C)NC(=O)CNC(=O)[C@H](CO)NC(=O)[C@H](CSSC[C@H](NC(=O)CN)C(=O)N[C@@H](CCC(N)=O)C(=O)N[C@@H](CCCCN)C(=O)N[C@@H](Cc4ccccc4)C(=O)N[C@@H](Cc4ccccc4)C(=O)N[C@@H](Cc4c[nH]c5ccccc45)C(=O)N[C@@H]([C@@H](C)O)C(=O)N3)NC2=O)C(=O)N[C@@H]([C@@H](C)O)C(=O)N[C@@H](Cc2c[nH]c3ccccc23)C(=O)N2CCC[C@H]2C(=O)N[C@@H]([C@@H](C)O)C(=O)N[C@@H](CCC(=O)O)C(=O)N[C@@H]([C@@H](C)CC)C(=O)N1)C(=O)N[C@@H](CC(C)C)C(N)=O [JZTX-14] (H-GCQKFFWTCHPGQPPCCSGLACTWPTEICIL-NH2; disulfide 2-17, 9-22, 16-29)
- Inhibition of inward sodium currents (in words) ([1]; 500 nM and 1 μM, 50 ms depolarisation to −30 mV, holding potential −100 mV): inhibited the inward sodium currents
- Shift of steady-state inactivation curves of sodium channels ([1]; 1 μM (Figure 3D), 6 cells per point, direction not given): approximately 10 mV
- Shift of activation thresholds of sodium channels ([1]; 1 μM, in the depolarising direction, I–V curves from −100 to +60 mV, holding potential −100 mV): approximately 10 mV
- IC50 ([1]; Hill equation fit, 50 ms depolarisation to −30 mV, holding potential −100 mV, synthetic JZTX-14, 6 cells per point, read-out: IC50, inhibition of sodium current): 401 nM
- Cell survival rate (CCK-8) ([2]; 1.5, 3, 6, 12.5, 25, 50, and 100 μM, 24 h, OD 450 nm): did not affect the survival rate
- Cell survival rate (CCK-8) ([2]; 25, 50, and 100 μM, 48 h, not statistically different compared to the control group): slightly reduced the survival rate
- Apoptosis and necrosis (Hoechst 33342/PI staining) [3]: no apoptosis and necrosis; also recorded: no significant effect on the necrosis
- Inhibition of migration (scratch assay) ([4]; 24 h): 72%
- Inhibition of migration (scratch assay) ([4]; 48 h): 80%
- Inhibition of cell invasion (transwell) ([5]; 6 μM): 50%
- Inhibition of cell invasion (transwell) ([5]; 12.5 μM): 75%
- ANGPTL4 expression (qPCR) [6]: downregulated
- FBXO2 expression (qPCR) [6]: downregulated
- GJB3 expression (qPCR) [6]: downregulated
- HMGN5 expression (qPCR) [6]: downregulated
- IL-24-F expression (qPCR) [6]: upregulated
- PLAC1 expression (qPCR) [6]: downregulated
- S100A4 expression (qPCR) [6]: downregulated
- SERPINB2 expression (qPCR) [6]: upregulated
- E-cadherin expression level (western blot) ([7]; epithelial marker): significantly increased
- MMP2 expression level (western blot) ([7]; matrix metalloproteinase): decreased
- N-cadherin expression level (western blot) ([7]; mesenchymal marker): decreased
- Vimentin expression level (western blot) ([7]; mesenchymal marker): decreased
- Inhibition of Nav1.5 function [8]: effectively inhibits
